Assay results: US20060183119A1, “Method for determining predisposition to a physiological reaction in a patient” (UNIVERSITE LAVAL, priority 2002, published 2006)
Positions count from the first letter of the chain named.

Assays:
Assay type in all cases: in vitro ADME
[1] = test system: human liver microsomes; experiment: SN-38 glucuronidation kinetics with commercially available human liver microsomes
Source text: (§1) For the determination of Vmax and Km.

[2] = biological target: T1, UGT1A7*6 (Homo sapiens, UniProt Q9HAW7, E139D); experiment: SN-38 glucuronidation by microsomes of HEK293 cells expressing UGT1A7*6; design: key to Function (SN-38G formation versus *1 allele): High: no significant difference in activity compared to *1 allele.; Low: significantly lower SN-38G formation versus *1 allele
T1 construct: expressed in transfected cells
T1 sequence (Q9HAW7 26-530 E139D): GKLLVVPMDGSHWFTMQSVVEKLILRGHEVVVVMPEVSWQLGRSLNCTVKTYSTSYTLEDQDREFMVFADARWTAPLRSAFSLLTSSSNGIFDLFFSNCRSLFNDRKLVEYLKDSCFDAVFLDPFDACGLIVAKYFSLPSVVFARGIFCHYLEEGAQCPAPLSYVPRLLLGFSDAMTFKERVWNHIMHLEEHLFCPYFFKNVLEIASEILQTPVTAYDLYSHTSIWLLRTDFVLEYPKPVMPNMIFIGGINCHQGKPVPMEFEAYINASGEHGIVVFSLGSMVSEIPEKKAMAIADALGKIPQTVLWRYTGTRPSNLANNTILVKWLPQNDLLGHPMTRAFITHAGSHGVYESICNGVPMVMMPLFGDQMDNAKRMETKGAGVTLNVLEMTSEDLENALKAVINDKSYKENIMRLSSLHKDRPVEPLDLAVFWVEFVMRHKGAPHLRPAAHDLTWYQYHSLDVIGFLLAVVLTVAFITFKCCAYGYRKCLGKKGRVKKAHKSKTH
Protocol: (§2) Western blot analyses of UGT1A7 and UGT1A9 variants expressed in HEK293 cells were performed on microsomal proteins (10 μg) separated on a 10% SDS-polyacrylamide gel. After transferring the proteins, the membranes were probed with an anti-UGT1A RC-71 polyclonal antibody and with an anti-calnexin antibody. The relative levels of UGT1A9 (a) and UGT1A7 proteins (b) were determined by semi-quantitative densitometric analysis of the Enhanced chemiluminescence (ECL) image. The in vitro SN-38 activity was assessed using microsomal fractions prepared from HEK293 cells expressing the *1 and variant UGT1A9 (c) and UGT1A7 (d) alleles and incubated with 5 μM of SN-38 as described in Materials and Methods.
as §1

[3] = biological target: T2, UGT1A7*8 (Homo sapiens, UniProt Q9HAW7, E139D/N129K/R131K/W208R); experiment: SN-38 glucuronidation by microsomes of HEK293 cells expressing UGT1A7*8; design: key to Function (SN-38G formation versus *1 allele): High: no significant difference in activity compared to *1 allele.; Low: significantly lower SN-38G formation versus *1 allele
T2 construct: expressed in transfected cells
T2 sequence (Q9HAW7 26-530 N129K/R131K/E139D/W208R): T1 sequence (Q9HAW7 26-530 E139D) with N104K, R106K, W183R
Protocol: as §2, §1

CCc1c2c(nc3ccc(O)cc13)-c1cc3c(c(=O)n1C2)COC(=O)[C@]3(O)CC [SN-38, 7-ethyl-10-hydroxycamptothecin]
Km ([1]; SN-38, LCQ detector): 6.8 ± 3 µM | Km ([1]; SN-38, fluorescent detection): 4.8 ± 0.8 µM | SN-38 glucuronidating activity of the allele (in words) [2]: highest | Function (SN-38G formation versus *1 allele) ([2]; in vitro experiments): High | SN-38 glucuronidating activity of the allele (in words) [3]: low | Function (SN-38G formation versus *1 allele) ([3]; in vitro experiments): Low | lower rates of SN-38G formation compared to UGT1A7*1 ([3]; range given for *5, *7 and *8 together): 38-76%
